Data set [1] in a line: Serum vitamin B12 levels after inhalation of aerosolized sample (Example 7). It is filed as in vivo. As to conditions: 75 minutes after initial inhalation. As for the experimental part: An electronic inhaler device powered by a 4.2V, 320 mAh lithium-ion battery was used to aerosolize a sample containing vitamin B12 in organic vegetable glycerin and 1,3-propanediol and the aerosolized sample was inhaled by test subjects. The sample was heated to between 75 to 260° C. with a 3 ohm heating element in about 2 to about 3 second intervals with about 5 to about 10 second rest periods for a total of […]. The mixture contained 60% glycerin and 40% 1,3-propanediol to which 2 mg/ml vitamin B12 was added. Serum vitamin B12 levels were measured in the test subjects before inhalation of the aerosolized sample and 75 minutes after initial inhalation of the aerosolized sample. Before inhalation, serum B12 levels averaged 403.0 pg/ml.

The conditions of data set [2]: healthy individuals, cited from earlier work.

Regarding cobalamin [vitamin B12], the “increase of serum B12 compared to levels before inhalation” value in data set [1] is reported as 5.4%. The “serum B12 levels after inhalation (average)” value in data set [1] (2 mg/ml vitamin B12, before inhalation 403.0 pg/ml) was found to be 424.7 pg/mL. For the same substance, in data set [2] (500 mcg oral supplement), the “fraction of oral supplement absorbed” value is reported as 2%. Also, in data set [2] (of a 500 mcg oral supplement), the “amount of oral supplement absorbed” value is reported as “about 10 mcg”.

These data come from patent publication US20200108009A1, “BIOAVAILABLE AEROSOLIZED SUPPLEMENT FORMULATIONS AND METHODS THEREOF” (Inhale Health LLC, priority 2017, published 2020).
